The source of these data is patent US8178534B2, “cMET inhibitors” (Takeda Pharmaceutical Company Limited, priority 2008, dated 2012).

SMILES strings stand for the structures. Counter-ions that a name gives are not always drawn. Where only a bound is given, the exact number is not on record here.

For test [1], the target named is T1, cMET enzyme (amino acids 1023-1360) (Homo sapiens, UniProt P08581).
T1 construct: The cMET enzyme (amino acids 1023-1360) nominally at 24 μM was held at −80° C. until use; His tag (N, cleaved yes); made in house; host or cells: Sf9 cells
Kind of test: Determination of inhibition of cMET (capillary electrophoresis, phosphorylated peptide product). It is filed as biochemical. The note with it: 1.2 nM cMET, 50 μM ATP, 2 μM FL-2 peptide, 2 hours room temperature. As for the experimental part:
The inhibitory property of a compound relative to cMET catalysis was determined by use of capillary electrophoresis with fluorescence quantification of a phosphorylated peptide product for cMET. The cMET enzyme (amino acids 1023-1360) nominally at 24 μM was held at −80° C. until use, in a buffer containing 25 mM Tris-HCl pH 8.5, 150 mM NaCl, 3 mM DTT and 10% glycerol. […] Following purification, the tag was removed and enzyme concentrated. […] To activate the enzyme fully, frozen cMET was thawed quickly and activated with the addition of assay buffer (50 mM HEPES pH 7.5, 10 mM NaCl, 10 mM MgCl2, 0.01% Brij® 35), 1.25 mM ATP, 5 mM MgCl2 and 5 mM DTT at a cMET concentration of 2.4 μM followed by a 30 minute incubation at room temperature. […] Next, cMET enzyme (1.2 nM final) was added and the system incubated at room temperature for 20 minutes. Catalysis was initiated by the addition of ATP (50 μM final). Assays were incubated at room temperature for 2 hours then quenched by the addition of EDTA. Phosphorylated peptide product was quantified by monitoring fluorescence during capillary electrophoresis with Caliper LifeSciences LabChip 3000 under the following settings: base pressure=−0.1 psi, screen pressure=−1.2 psi, downstream voltage=−500 V, upstream voltage=−2300 V, chip type=TC372. The elution buffer was identical to the assay buffer except for the absence of DTT, FL-2 and ATP and the addition of 0.1% coating reagent (Caliper). […] Peak height was quantified and used to determine enzyme velocities.
IC50 values were calculated by non-linear least squares curve fitting of the standard IC50 equation to background-corrected cMET velocity versus compound concentration.

In the next test the test system is MKN45. Kind of test: Inhibition of cell viability (MTS), MKN45. Type of test: cell-based. The settings on record: MKN45 cells, 96 hours incubation. As for the experimental part: (§1) Cells were maintained at 37° C. in a humidified atmosphere containing 5%-8% CO2 following the instructions of the supplier (American Type Culture Collection (Rockville, Md.)). Inhibition of cell viability was determined for a panel of tumor cell lines (MKN45, EBC1 and A549), using the soluble tetrazolium salt, MTS (Promega, Madison, Wis.). Cells were seeded at 2,000-7,500 cells/well in 96-well tissue culture plates and were allowed to attach for approximately 24 hours prior to addition of compounds or DMSO vehicle. […] Cells were treated in duplicate with test compounds. Compounds were serially diluted (1:2.5) from column 1 to 11 and column 12 contained DMSO vehicle. Compounds were diluted into cell growth medium then compound solution was added to cells. Equal amounts of DMSO were added to cells (final concentration is 0.5%). After background correction and normalization against DMSO-treated cells, EC50 values were calculated using non-linear curve-fitting of the cell viability as a function of compound concentration. The MKN45 and EBC1 cell lines contain high levels of phospho-Met and are dependent on cMET for proliferation, whereas the A549 line is used as negative control.
(§2) EC50 values may be calculated by non-linear curve fitting of the compound concentrations and fluorescence intensities to the standard EC50 equation.

In a further test the test system is EBC1. Kind of test: Inhibition of cell viability (MTS), EBC1. Type of test: cell-based. The note with it: EBC1 cells, 96 hours incubation. As for the experimental part:
as §1, §2

Another test has as its system A549. The test is described as follows: Inhibition of cell viability (MTS), A549 (negative control line). It is filed as cell-based. The settings on record: A549 cells (negative control), 96 hours incubation. As for the experimental part:
as §1, §2

T1 sequence (P08581 1023-1360): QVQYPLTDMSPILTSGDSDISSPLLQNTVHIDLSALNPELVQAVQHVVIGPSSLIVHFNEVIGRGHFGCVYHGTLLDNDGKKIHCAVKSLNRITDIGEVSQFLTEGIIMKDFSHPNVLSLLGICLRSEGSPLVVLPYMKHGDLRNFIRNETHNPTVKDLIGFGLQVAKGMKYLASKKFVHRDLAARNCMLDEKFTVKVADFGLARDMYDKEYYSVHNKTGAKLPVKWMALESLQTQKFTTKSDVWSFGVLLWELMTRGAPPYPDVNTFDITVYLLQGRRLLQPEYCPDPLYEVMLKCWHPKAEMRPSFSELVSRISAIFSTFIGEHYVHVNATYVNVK

In the case of `O=C(Nc1cn2nc(Sc3nnc4ccccn34)ccc2n1)C1CC1` [3 (HCl Salt)], the IC50 in test [1] is over 100 nM. In addition, the EC50 lay within 250 to 630 nM in the test with MKN45; 100 to 199 nM in the test with EBC1 (Homo sapiens, EBC-1, 96 h); 8000 to 25000 nM in the test on A549 (Homo sapiens, A549, 96 h).

In test [1], `O=C(Nc1cn2nc(Sc3nnc4ccccn34)ccc2n1)C1CC1` [3 (TFA Salt), N-(6-([1,2,4]triazolo[4,3-a]pyridin-3-ylthio)imidazo[1,2-b]pyridazin-2-yl)cyclopropanecarboxamide] came in with an IC50 of over 100 nM. Further, the EC50 was in the range of 250 to 630 nM in the test with MKN45, 100 to 199 nM in the test on EBC1 and 8000 to 25000 nM in the test with A549.

On to `O=C(Nc1cn2nc(Sc3nnc4ccccn34)ccc2n1)C1CC1` [3 (free base), N-(6-([1,2,4]Triazolo[4,3-a]pyridin-3-ylthio)imidazo[1,2-b]pyridazin-2-yl)cyclopropanecarboxamide], for which the IC50 in test [1] was over 100 nM. The EC50 in the test with MKN45 was 100 to 199 nM; in the test with EBC1, 60 to 100 nM; with A549, 8000 to 25000 nM.

`Cn1cc(-c2ccc3nnn(Cc4ccc5nc(NC(=O)C6CC6)cn5n4)c3c2)cn1` [13 (HCl Salt), N-(6-((6-(1-methyl-1H-pyrazol-4-yl)-1H-benzo[d][1,2,3]triazol-1-yl)methyl)imidazo[1,2-b]pyridazin-2-yl)cyclopropanecarboxamide] returned a 50% inhibitory concentration (IC50) in test [1] of 30 to 59 nM. Also, the EC50 with MKN45 was 100 to 249 nM; in the test on EBC1 (Homo sapiens, EBC-1, 96 h) it was under 35 nM; in the test with A549, 8000 to 25000 nM.

`Cn1cc(-c2ccc3nnn(Cc4ccc5nc(NC(=O)C6CC6)cn5n4)c3c2)cn1` [13 (TFA Salt), Cyclopropanecarboxylic acid {6-[6-(1-methyl-1H-pyrazol-4-yl)-benzotriazol-1-ylmethyl]-imidazo[1,2-b]pyridazin-2-yl}-amide] had an IC50 in test [1] of 30 to 59 nM. Besides, the EC50 is 60 to 100 nM in the test on MKN45, under 30 nM in the test on EBC1 and 5000 to 8000 nM in the test on A549.

In turn, `Cn1cc(-c2ccc3nnc(C(F)(F)c4ccc5nc(NC(=O)C6CC6)cn5n4)n3c2)cn1` [45 (HCl Salt), N-(6-(Difluoro(6-(1-methyl-1H-pyrazol-4-yl)-[1,2,4]triazolo[4,3-a]pyridin-3-yl)methyl)imidazo[1,2-b]pyridazin-2-yl)cyclopropanecarboxamide hydrochloride] showed an IC50 in test [1] of under 30 nM. Also, the EC50 in the test on MKN45 (Homo sapiens, MKN-45, 96 h) was under 30 nM; in the test with EBC1 (Homo sapiens, EBC-1, 96 h), under 30 nM; with A549 (Homo sapiens, A549, 96 h), over 50000 nM.

`Cn1cc(-c2ccc3nnc(C(F)(F)c4ccc5nc(NC(=O)C6CC6)cn5n4)n3c2)cn1` [45 (TFA Salt), N-(6-(difluoro(6-(1-methyl-1H-pyrazol-4-yl)-[1,2,4]triazolo[4,3-a]pyridin-3-yl)methyl)imidazo[1,2-b]pyridazin-2-yl)cyclopropanecarboxamide] showed a 50% inhibitory concentration (IC50) in test [1] of 30 to 59 nM.

For the compound `CC(c1ccc2nc(NC(=O)C3CC3)cn2n1)c1nnc2ccc(-c3cnn(C)c3)cn12` (centres unmarked) [49 (HCl Salt), N-(6-(1-(6-(1-methyl-1H-pyrazol-4-yl)-[1,2,4]triazolo[4,3-a]pyridin-3-yl)ethyl)imidazo[1,2-b]pyridazin-2-yl)cyclopropanecarboxamide], the IC50 in test [1] was under 30 nM. For the same compound, the EC50 was 30 to 59 nM in the test on MKN45 (Homo sapiens, MKN-45, 96 h); under 30 nM in the test on EBC1 (Homo sapiens, EBC-1, 96 h); 8000 to 25000 nM in the test with A549.

Take `CC(c1ccc2nc(NC(=O)C3CC3)cn2n1)c1nnc2ccc(-c3cnn(C)c3)cn12` (centres unmarked) [49 (TFA Salt), N-(6-(1-(6-(1-methyl-1H-pyrazol-4-yl)-[1,2,4]triazolo[4,3-a]pyridin-3-yl)ethyl)imidazo[1,2-b]pyridazin-2-yl)cyclopropanecarboxamide]: the IC50 in test [1] lay in the range of 30 to 59 nM. Further, the results for the concentration giving a half-maximal response (EC50) in the test on MKN45, in the test on EBC1 and with A549 were 60 to 100 nM, 60 to 100 nM and over 50000 nM, respectively.

On to `CC(c1ccc2nc(NC(=O)C3CC3)cn2n1)c1nnc2ccc(-c3cnn(C)c3)cn12` (centres unmarked) [49 (free base), N-(6-(1-(6-(1-methyl-1H-pyrazol-4-yl)-[1,2,4]triazolo[4,3-a]pyridin-3-yl)ethyl)imidazo[1,2-b]pyridazin-2-yl)cyclopropanecarboxamide], for which, in test [1], the IC50 was under 30 nM. In addition, the EC50 in the test on MKN45 is 60 to 100 nM; with EBC1, under 30 nM; in the test with A549, over 50000 nM.

As for `O=C(Nc1cn2cc(Cn3nnc4cccnc43)ccc2n1)C(F)(F)F` [Compound 1, N-(6-((3H-[1,2,3]triazolo[4,5-b]pyridin-3-yl)methyl)imidazo[1,2-a]pyridin-2-yl)-2,2,2-trifluoroacetamide], the IC50 in test [1] is over 100 nM.

The compound `O=C(Nc1cn2cc(Cn3nnc4ncccc43)ccc2n1)C(F)(F)F` [Compound 2, N-(6-((1H-[1,2,3]triazolo[4,5-b]pyridin-1-yl)methyl)imidazo-[1,2-a]pyridin-2-yl)-2,2,2-trifluoroacetamide] yielded an IC50 in test [1] of over 100 nM.

`Cc1ccn2c(Sc3ccc4nc(NC(=O)C5CC5)cn4n3)nnc2c1` [Compound 43, N-(6-(7-methyl-[1,2,4]triazolo[4,3-a]pyridin-3-ylthio)imidazo[1,2-b]pyridazin-2-yl)cyclopropanecarboxamide] had an IC50 in test [1] of over 100 nM.

In test [1], `NC(=O)c1ccc(-c2ccc3nnc(C(F)(F)c4ccc5nc(NC(=O)C6CC6)cn5n4)n3c2)cc1` [Compound 89, 4-(3-((2-(cyclopropanecarboxamido)imidazo[1,2-b]pyridazin-6-yl)difluoromethyl)-[1,2,4]triazolo[4,3-a]pyridin-6-yl)benzamide] returned an IC50 of under 30 nM.

`Cc1ccncc1-c1ccc2nnc(C(F)(F)c3ccc4nc(NC(=O)C5CC5)cn4n3)n2c1` [Compound 94, N-(6-(difluoro(6-(4-methylpyridin-3-yl)-[1,2,4]triazolo[4,3-a]pyridin-3-yl)methyl)imidazo[1,2-b]pyridazin-2-yl)cyclopropanecarboxamide] registered an IC50 in test [1] of 250 to 630 nM.

In the case of `CNC(=O)c1ccc(-c2ccc3nnc(C(F)(F)c4ccc5nc(NC(=O)C6CC6)cn5n4)n3c2)cc1` [Compound 95, 4-(3-((2-(cyclopropanecarboxamido)imidazo[1,2-b]pyridazin-6-yl)difluoromethyl)-[1,2,4]triazolo[4,3-a]pyridin-6-yl)-N-methylbenzamide], the IC50 in test [1] is under 30 nM.

Consider `Cn1cc(-c2ccc3nnc(Sc4ccc5nc(NC(=O)C6CC6)cn5n4)n3c2)ccc1=O` [Compound 105, N-(6-(6-(1-methyl-6-oxo-1,6-dihydropyridin-3-yl)-[1,2,4]triazolo[4,3-a]pyridin-3-ylthio)imidazo[1,2-b]pyridazin-2-yl)cyclopropanecarboxamide], for which the IC50 in test [1] is under 30 nM.

`CCn1cc(-c2ccc3nnc(Sc4ccc5nc(NC(=O)C6CC6)cn5n4)n3c2)ccc1=O` [Compound 106, N-(6-(6-(1-ethyl-6-oxo-1,6-dihydropyridin-3-yl)-[1,2,4]triazolo[4,3-a]pyridin-3-ylthio)imidazo[1,2-b]pyridazin-2-yl)cyclopropanecarboxamide]: the IC50 in test [1] is under 30 nM.

On to `COCCOCc1ccc2nnc(Sc3ccc4nc(NC(=O)C5CC5)cn4n3)n2c1` [Compound 112, N-(6-(6-((2-methoxyethoxy)methyl)-[1,2,4]triazolo[4,3-a]pyridin-3-ylthio)imidazo[1,2-b]pyridazin-2-yl)cyclopropanecarboxamide], for which the IC50 in test [1] is 100 to 249 nM.

`Cc1c(F)ccc2nnc(Sc3ccc4nc(NC(=O)C5CC5)cn4n3)n12` [Compound 113, N-(6-(6-fluoro-5-methyl-[1,2,4]triazolo[4,3-a]pyridin-3-ylthio)imidazo[1,2-b]pyridazin-2-yl)cyclopropanecarboxamide] had an IC50 in test [1] of 250 to 630 nM.

In general, IC50 refers to the concentration that inhibits the measured activity by half. Read a high IC50 as a need for much substance. In general, EC50 refers to the concentration at which the effect is half-maximal.
